The source of these data is patent US5047555A, “4-aminophenol derivatives and processes for preparing the same” (Tanabe Seiyaku Co., Ltd., priority 1988, dated 1991).

For one assay, the system named is lipoxygenase. As to conditions: cited from earlier work.
The next assay deals with T1, 5-lipoxygenase (Rattus norvegicus, UniProt P12527).
T1 construct: An enzyme solution containing 5-lipoxygenase was prepared from cultured basophilic leukemia cell strain RBL-1 cells; endogenous in cells; host or cells: RBL-1 cells
T1 sequence (P12527 1-673): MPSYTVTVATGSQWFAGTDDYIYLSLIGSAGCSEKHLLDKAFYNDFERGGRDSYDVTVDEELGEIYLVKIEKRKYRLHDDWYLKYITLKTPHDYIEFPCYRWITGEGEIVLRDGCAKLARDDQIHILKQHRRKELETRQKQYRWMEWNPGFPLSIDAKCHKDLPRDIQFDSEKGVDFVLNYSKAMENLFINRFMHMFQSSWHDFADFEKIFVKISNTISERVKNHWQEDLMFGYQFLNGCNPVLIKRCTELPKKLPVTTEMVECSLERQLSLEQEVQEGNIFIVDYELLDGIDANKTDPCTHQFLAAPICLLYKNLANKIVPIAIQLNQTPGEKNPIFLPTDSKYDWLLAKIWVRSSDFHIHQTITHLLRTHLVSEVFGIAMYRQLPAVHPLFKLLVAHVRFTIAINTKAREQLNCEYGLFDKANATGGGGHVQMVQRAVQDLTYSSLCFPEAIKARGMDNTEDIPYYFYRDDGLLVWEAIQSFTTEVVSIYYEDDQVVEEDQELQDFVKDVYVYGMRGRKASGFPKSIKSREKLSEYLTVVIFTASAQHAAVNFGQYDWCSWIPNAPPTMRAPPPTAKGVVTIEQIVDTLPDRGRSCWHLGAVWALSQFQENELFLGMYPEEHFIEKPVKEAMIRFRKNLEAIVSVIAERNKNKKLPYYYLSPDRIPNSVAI
Put plainly: 5-Lipoxygenase inhibitory activity (5-HETE formation, enzyme solution from RBL-1 cells). It counts as biochemical. The note with it: radiolabelled arachidonic acid substrate, indomethacin, calcium chloride, ATP; RBL-1 enzyme. As for the experimental part:
An enzyme solution containing 5-lipoxygenase was prepared from cultured basophilic leukemia cell strain RBL-1 cells, and the reaction was carried out with radiolabelled arachidonic acid as the substrate in the presence of indomethacin, calcium chloride, adenosine triphosphate and the substance to be tested. A predetermined amount of the reaction mixture was spotted on a thin layer, separated by development, and then the radioactivity of the 5-HETE (5-hydroxyeicosatetraenic acid) fraction of the enzyme reaction product was measured to give the index of the 5-lipoxygenase activity. […] [Method of M. Furukawa et al. described in Biochimica et Biophysica acta, vol. 795, p. 458 (1984)]

The subject of another assay is Leukotriene C4 formation. Put plainly: Leukotriene C4 formation inhibitory activity (sensitized guinea pig lung fragments). It counts as cell-based. The note with it: Cavia porcellus; 10^-5 M; ovalbumin-sensitized guinea pig lung fragments, ovalbumin challenge in vitro, radioimmunoassay. How it is done: Leukotriene C4 formation inhibitory activity
Lung fragments of guinea pig sensitized with ovalbumin were treated with the test compound and challenged with ovalbumin in vitro. After solvent extraction, leukotriene C4 in the supernatant was determined by radioimmunoassay. The leukotriene C4 formation inhibitory activity of the test compound is expressed as % inhibition at the sample concentration of 10^-5 M.

A further assay relates to Leukotriene B4 formation. Put plainly: Leukotriene B4 formation inhibitory activity (guinea pig neutrophil suspension). The class given is cell-based. As to conditions: Cavia porcellus, 10^-6 M, guinea pig neutrophils, calcium ionophore A23187 and arachidonic acid, HPLC. How it is done:
Leukotriene B4 formation inhibitory activity
A neutrophil suspension, prepared by administration of casein intraperitoneally to guinea pig, was treated with the test compound and challenged with calcium ionophore A23187 and arachidonic acid. After solvent extraction, leukotriene B4 was assayed by high performance liquid chromatography. The leukotriene B4 formation inhibitory activity of the test compound is expressed as % inhibition at the sample concentration of 10^-6 M. [Method of Douglass et al. described in Prostaglandins vol. 31, p. 358 (1986)]

In assay [1] the test system is PCA (passive cutaneous anaphylaxis). The note with it: cited from earlier work.
For assay [2] the following is noted: stabilizer for polymers; cited from earlier work.

For `CCCc1cc(F)c2oc(C(=O)OCc3ccccc3)c(C)c2c1O`, in the assay with lipoxygenase, the lipoxygenase inhibitory activity entry is on record as “lipoxygenase inhibitory activity”.
As for `CCCc1cc(F)c2oc(C(=O)OCC)c(C)c2c1O`, the lipoxygenase inhibitory activity result with lipoxygenase is “lipoxygenase inhibitory activity”.
Usually IC50 stands for the midpoint of a concentration-inhibition curve. `Cc1cc(NC(=O)c2cc3ccccc3s2)cc(C)c1O`: the IC50 on 5-lipoxygenase worked out at 210 nM.
Turning to `Cc1cc(NC(=O)/C=C/c2cccn2C)cc(C)c1O`, the IC50 on 5-lipoxygenase is 440 nM.
On to `CC=CC=CC(=O)Nc1cc(C)c(O)c(C)c1`, for which the concentration for half-maximal inhibition (IC50) on 5-lipoxygenase worked out at 400 nM.
The inhibition is the drop in the measured response relative to a control, in per cent. For the compound `Cc1cc(NC(=O)c2cccs2)cc(C)c1O`, in the assay with Leukotriene C4 formation, the inhibition at 10 µM is 76.6%.
For `COc1cccc(CCC(=O)Nc2cc(C)c(O)c(C)c2)c1`, the inhibition at 10 µM in the assay on Leukotriene C4 formation was 66.9%.
For the compound `COc1ccc(CC(C)C(=O)Nc2cc(C)c(O)c(C)c2)cc1` (stereo not shown), in the assay with Leukotriene C4 formation, the inhibition at 10 µM worked out at 58.9%.
The same measure, in the same setting: to `COc1ccc(/C=C(\C)C(=O)Nc2cc(C(C)(C)C)c(O)c(C(C)(C)C)c2)cc1` belongs 58.3%.
For `CC(=O)Oc1ccc(/C=C/C(=O)Nc2cc(C)c(O)c(C)c2)cc1OC(C)=O`, in the assay on Leukotriene B4 formation, the inhibition at 1 µM is 82%.
The same measure, in the same setting: to `CC(C)=CCC/C(C)=C/C(=O)Nc1cc(C)c(O)c(C)c1` belongs 82.5%.
As for `CC(C)=CCC/C(C)=C\C(=O)Nc1cc(C)c(O)c(C)c1`, the inhibition at 1 µM in the assay on Leukotriene B4 formation came out at 95.3%.
Regarding `CC(C)=CCC/C(C)=C/CC/C(C)=C/C(=O)Nc1cc(C)c(O)c(C)c1`, the inhibition at 1 µM in the assay on Leukotriene B4 formation stood at 90.5%.
As for `CC(C)=CCC/C(C)=C/CC/C(C)=C\C(=O)Nc1cc(C)c(O)c(C)c1`, the inhibition at 1 µM in the assay on Leukotriene B4 formation is 98.5%.
`COc1cc(C(=O)Nc2cc(Cl)c(O)c(Cl)c2)cc(OC)c1OC` [2,6-dichloro-4-(3,4,5-trimethoxybenzoyl)aminophenol]: the “immune control activity or PCA inhibitory activity” value in assay [1] was “immune control activity or PCA (passive cutaneous anaphylaxis) inhibitory activity”.
Turning to `CC(C)c1cc(NC(=O)c2cccs2)cc(C(C)C)c1O` [4-(2-thienylcarbonyl)-amino-2,6-diisopropylphenol], the half-maximal inhibitory concentration (IC50) on 5-lipoxygenase was determined as 150 nM. For the same compound, in the assay on Leukotriene C4 formation, the inhibition at 10 µM was determined as 79.9%.
As to `CCCCCCCCCCCC(=O)Nc1cc(CC)c(O)c(C(C)(C)C)c1` [4-(lauroylamino)-2-ethyl-6-tert-butylphenol], the antioxidant activity entry in assay [2] is given as “antioxidant activity”.
As to `CCCCCCCCCCCCCCCCCC(=O)Nc1cc(C(C)(C)C)c(O)c(C(C)(C)C)c1` [4-(stearoylamino)-2,6-di-tert-butylphenol], the antioxidant activity entry in assay [2] is listed as “antioxidant activity”.
Consider `Cc1cnc(Nc2ccc(O)c(C(C)(C)C)c2C(C)(C)C)s1` [4-[2-(5-methyl)thiazolylamino]-2,3-di-tert-butylphenol], for which, in the assay with lipoxygenase, the lipoxygenase inhibitory activity entry is recorded as “lipoxygenase inhibitory activity”.
In the case of `CCCCCCCC(=O)Nc1cc(CC)c(O)c(CC)c1` [both C2 H5, (CH2)6 CH3], the inhibition at 1 µM with Leukotriene B4 formation is 85.6%.
`CCCCCCC(=O)Nc1cc(C)c(O)c(C)c1` [both CH3, (CH2)5 CH3]: on 5-lipoxygenase, the 50% inhibitory concentration (IC50) amounted to 300 nM. In the assay on Leukotriene B4 formation, the inhibition at 1 µM was found to be 53.1%.
Turning to `CCCCCCCC(=O)Nc1cc(C)c(O)c(C)c1` [both CH3, (CH2)6 CH3], the IC50 at 5-lipoxygenase worked out at 330 nM. For the same compound, the inhibition at 1 µM in the assay with Leukotriene B4 formation worked out at 59.7%.
As for `CCCCCCCCC(=O)Nc1cc(C)c(O)c(C)c1` [both CH3, (CH2)7 CH3, 4-nonanoylamino-2,6-dimethylphenol], the 50% inhibitory concentration (IC50) at 5-lipoxygenase amounted to 400 nM. In the assay on Leukotriene B4 formation, the inhibition at 1 µM was determined as 57.3%.
`CCCCCCCC(=O)Nc1cc(C(C)C)c(O)c(C(C)C)c1` [both CH(CH3)2, (CH2)6 CH3]: the inhibition at 1 µM in the assay with Leukotriene B4 formation turned out to be 69.5%.
For the compound `Cc1cc(NC(=O)c2ccsc2)cc(C)c1O` [drawing 7], the half-inhibitory concentration (IC50) on 5-lipoxygenase is 810 nM.
As for `Cc1ccc(C(=O)Nc2cc(C)c(O)c(C)c2)s1` [drawing 8], the IC50 at 5-lipoxygenase came out at 270 nM.
`Cc1cc(NC(=O)/C=C/c2cccs2)cc(C)c1O` [drawing 11]: the 50% inhibitory concentration (IC50) on 5-lipoxygenase is 200 nM.
Take `Cc1cc(NC(=O)CCc2cccs2)cc(C)c1O` [drawing 13]: at 5-lipoxygenase, the IC50 amounted to 760 nM.
The same measure, in the same setting: to `COc1cccc(/C=C/C(=O)Nc2cc(C)c(O)c(C)c2)c1` [drawing 16] belongs 240 nM; to `COc1ccc(/C=C/C(=O)Nc2cc(C)c(O)c(C)c2)cc1` [drawing 17], 220 nM; to `COc1ccc(/C=C(\C)C(=O)Nc2cc(C)c(O)c(C)c2)cc1` [drawing 19], 150 nM.
As to `CC(=O)Oc1ccc(CCC(=O)Nc2cc(C)c(O)c(C)c2)cc1OC(C)=O` [drawing 20], the IC50 at 5-lipoxygenase was 200 nM.
Take `COc1ccc(CCC(=O)Nc2cc(C)c(O)c(C)c2)cc1` [drawing 21]: the half-inhibitory concentration (IC50) at 5-lipoxygenase was 250 nM.
On to `COc1ccc(/C=C(\C)C(=O)Nc2cc(C(C)C)c(O)c(C(C)C)c2)cc1` [drawing 22], for which, on 5-lipoxygenase, the half-maximal inhibitory concentration (IC50) worked out at 150 nM.
For `Cc1cc(NC(=O)c2ccsc2)cc(C)c1O` [drawing 25], the inhibition at 10 µM in the assay on Leukotriene C4 formation turned out to be 62.9%.
Turning to `Cc1ccc(C(=O)Nc2cc(C)c(O)c(C)c2)s1` [drawing 27], the inhibition at 10 µM in the assay with Leukotriene C4 formation was determined as 59%.
As to `Cc1cc(NC(=O)CCc2cccs2)cc(C)c1O` [drawing 28], the inhibition at 10 µM in the assay with Leukotriene C4 formation worked out at 45.8%.
With `Cc1cc(NC(=O)/C=C/c2cccs2)cc(C)c1O` [drawing 30], the inhibition at 10 µM in the assay with Leukotriene C4 formation is 65%.
Regarding `COc1ccc(CCC(=O)Nc2cc(C)c(O)c(C)c2)cc1` [drawing 33], the inhibition at 10 µM with Leukotriene C4 formation came out at 49.3%.
As to `COc1cccc(/C=C/C(=O)Nc2cc(C)c(O)c(C)c2)c1` [drawing 35], the inhibition at 10 µM with Leukotriene C4 formation worked out at 46%.
Consider `COc1ccc(/C=C(\C)C(=O)Nc2cc(C)c(O)c(C)c2)cc1` [drawing 37], for which, in the assay with Leukotriene C4 formation, the inhibition at 10 µM is 58.1%.
`COc1cccc(/C=C/C(=O)Nc2cc(C)c(O)c(C)c2)c1` [drawing 42]: the inhibition at 1 µM with Leukotriene B4 formation was found to be 62.6%.
Take `COc1ccc(/C=C/C(=O)Nc2cc(C)c(O)c(C)c2)cc1` [drawing 43]: the inhibition at 1 µM with Leukotriene B4 formation is 65.6%.
For `CC(=O)Oc1ccc(CCC(=O)Nc2cc(C)c(O)c(C)c2)cc1OC(C)=O` [drawing 45], the inhibition at 1 µM in the assay on Leukotriene B4 formation was found to be 81.9%.
Same read-out and setting: to `COc1ccc(/C=C(\C)C(=O)Nc2cc(C(C)C)c(O)c(C(C)C)c2)cc1` [drawing 47] belongs 88.8%.
